The text below walks through data of publication PMC2248166, “Quantitative peptide binding motifs for 19 human and mouse MHC class I molecules derived using positional scanning combinatorial peptide libraries” (Immunome Research, 2008).

Where a SMILES comes first, the peptide text is derived from it.

For the test, the target named is HLA B*1503 (Homo sapiens, UniProt P01889, A329T/A93T/A95T/C349S/D201E/D98Y/E187L/E204Q/K202T/N87E/Q94N/R155S/R180L/S121R/S35A/V306I/V36M/Y140S/Y91S). In words: biochemical. The test is classed as binding.
One may read the IC50 as the concentration at which inhibition is half-maximal. The molecule `CC(C)C[C@H](NC(=O)[C@H](CC(C)C)NC(=O)[C@H](CCCNC(=N)N)NC(=O)[C@H](CCCNC(=N)N)NC(=O)[C@@H](NC(=O)[C@H](Cc1c[nH]cn1)NC(=O)[C@@H](N)Cc1ccccc1)C(C)C)C(=O)N[C@@H](CCCCN)C(=O)N[C@@H](Cc1ccccc1)C(=O)O` [3102.1241] (H-FHVRRLLKF-OH) displayed an IC50 of 21 nM.
In turn, `CC[C@H](C)[C@H](NC(=O)[C@H](CS)NC(=O)[C@@H](NC(=O)[C@H](CC(N)=O)NC(=O)[C@@H]1CCCN1C(=O)[C@H](Cc1ccc(O)cc1)NC(=O)[C@H](CC(C)C)NC(=O)[C@@H](N)CO)C(C)C)C(=O)N[C@@H](Cc1ccccc1)C(=O)O` [3102.1246] (H-SLYPNVCIF-OH) showed a half-inhibitory concentration (IC50) of 4.9 nM.
`CSCC[C@H](NC(=O)[C@@H](N)CCCNC(=N)N)C(=O)N[C@@H](Cc1ccccc1)C(=O)NCC(=O)N[C@@H](CO)C(=O)N[C@@H](CCCCN)C(=O)N1CCC[C@H]1C(=O)N[C@H](C(=O)N[C@@H](Cc1ccccc1)C(=O)O)[C@@H](C)O` [3102.1247] (H-RMFGSKPTF-OH) showed an IC50 of 0.21 nM.
As for `CSCC[C@H](NC(=O)[C@H](CCCCN)NC(=O)[C@H](CCC(N)=O)NC(=O)[C@@H](N)CCCCN)C(=O)N[C@@H](Cc1ccccc1)C(=O)N[C@@H](CO)C(=O)N[C@@H](CC(N)=O)C(=O)N[C@@H](CC(N)=O)C(=O)N[C@H](C(=O)O)C(C)C` [3102.1248] (H-KQKMFSNNV-OH), the IC50 was 19 nM.
Molecule `CSCC[C@H](NC(=O)[C@@H](N)CC(C)C)C(=O)N[C@H](C(=O)N[C@@H](CO)C(=O)NCC(=O)N1CCC[C@H]1C(=O)N[C@@H](CC(N)=O)C(=O)N[C@H](C(=O)N[C@H](C(=O)O)C(C)C)C(C)C)C(C)C` [3102.1249] (H-LMVSGPNVV-OH) had a half-maximal inhibitory concentration (IC50) of 3.8 nM.
Then `CC[C@H](C)[C@H](N)C(=O)N[C@@H](CCCCN)C(=O)N[C@H](C(=O)N[C@H](C(=O)N[C@@H](C)C(=O)N[C@@H](C)C(=O)N[C@@H](CO)C(=O)N1CCC[C@H]1C(=O)N[C@@H](CCSC)C(=O)O)[C@@H](C)O)C(C)C` [3102.1251] (H-IKVTAASPM-OH), with 2.8 nM.
For the molecule `CSCC[C@H](NC(=O)[C@@H](N)CCCCN)C(=O)N[C@@H](C)C(=O)N[C@@H](C)C(=O)N[C@@H](CC(=O)O)C(=O)N[C@@H](CCCNC(=N)N)C(=O)NCC(=O)N[C@@H](C)C(=O)N[C@@H](Cc1ccccc1)C(=O)O` [3102.1255] (H-KMAADRGAF-OH), inhibition was half-maximal at 2.5 nM (IC50).
Regarding `CC(C)[C@H](NC(=O)[C@H](CCCCN)NC(=O)[C@@H](N)CCCCN)C(=O)N[C@@H](Cc1ccc(O)cc1)C(=O)N[C@H](C(=O)N[C@@H](Cc1ccccc1)C(=O)N[C@@H](Cc1ccccc1)C(=O)N[C@@H](CCCCN)C(=O)N[C@@H](Cc1ccccc1)C(=O)O)[C@@H](C)O` [3102.1257] (H-KKVYTFFKF-OH), the half-maximal inhibitory concentration (IC50) was 3.6 nM.
Next, `CC[C@H](C)[C@H](NC(=O)[C@H](Cc1ccc(O)cc1)NC(=O)[C@H](CCC(N)=O)NC(=O)[C@@H](N)Cc1ccc(O)cc1)C(=O)N[C@@H](Cc1ccccc1)C(=O)N[C@@H](CC(C)C)C(=O)N[C@@H](CO)C(=O)N[C@@H](Cc1ccccc1)C(=O)N[C@@H](Cc1ccccc1)C(=O)O` [3102.1259]: 0.94 nM.
Then `CC[C@H](C)[C@H](N)C(=O)N[C@@H](CC(C)C)C(=O)N[C@@H](Cc1c[nH]cn1)C(=O)N[C@H](C(=O)N[C@@H](CC(=O)O)C(=O)N[C@H](C(=O)N[C@@H](CC(C)C)C(=O)N[C@@H](CO)C(=O)N[C@@H](Cc1ccccc1)C(=O)O)[C@@H](C)CC)C(C)C` [3102.1261] (H-ILHVDILSF-OH), with 24 nM.
`CC(C)C[C@H](NC(=O)[C@H](CCC(=O)O)NC(=O)[C@@H](NC(=O)[C@H](CO)NC(=O)[C@H](CO)NC(=O)[C@@H](NC(=O)[C@H](CCC(N)=O)NC(=O)[C@@H](N)CO)C(C)C)[C@@H](C)O)C(=O)N[C@@H](Cc1ccccc1)C(=O)O` [3102.1264] (H-SQVSSTELF-OH): the IC50 was determined as 1.8 nM.
As for `CC(C)C[C@H](N)C(=O)N[C@@H](CCCCN)C(=O)N[C@@H](Cc1ccc(O)cc1)C(=O)N[C@@H](Cc1ccc(O)cc1)C(=O)N[C@@H](Cc1ccc(O)cc1)C(=O)N[C@@H](CO)C(=O)N[C@@H](CC(N)=O)C(=O)N[C@@H](CO)C(=O)N[C@@H](Cc1ccc(O)cc1)C(=O)O` [3102.1265] (H-LKYYYSNSY-OH), half-maximal inhibition (IC50) required 0.24 nM.
`CC(C)C[C@H](NC(=O)[C@H](CC(N)=O)NC(=O)[C@H](C)NC(=O)[C@H](CO)NC(=O)[C@H](CC(C)C)NC(=O)[C@H](CCCNC(=N)N)NC(=O)[C@H](CC(C)C)NC(=O)[C@@H](N)Cc1ccccc1)C(=O)N[C@@H](Cc1ccccc1)C(=O)O` [3102.1266] (H-FLRLSANLF-OH) displayed an IC50 of 0.12 nM.
`CC(C)[C@H](NC(=O)[C@H](Cc1ccc(O)cc1)NC(=O)[C@H](CCCNC(=N)N)NC(=O)[C@@H](NC(=O)[C@H](CC(N)=O)NC(=O)[C@H](Cc1ccc(O)cc1)NC(=O)[C@H](CCCCN)NC(=O)[C@@H](N)CCCCN)C(C)C)C(=O)N[C@@H](Cc1ccccc1)C(=O)O` [3102.1267] (H-KKYNVRYVF-OH) registered an IC50 of 1 nM.
Then `CSCC[C@H](NC(=O)[C@H](C)N)C(=O)N[C@@H](CCCCN)C(=O)N[C@H](C(=O)N[C@@H](CC(=O)O)C(=O)N[C@@H](C)C(=O)N[C@@H](CC(N)=O)C(=O)N[C@@H](Cc1ccc(O)cc1)C(=O)N[C@@H](Cc1ccccc1)C(=O)O)C(C)C` [3102.1268] (H-AMKVDANYF-OH), with 0.15 nM; and `CC(C)C[C@H](NC(=O)[C@@H](N)Cc1ccccc1)C(=O)N[C@@H](CO)C(=O)N[C@@H](CCC(=O)O)C(=O)N1CCC[C@H]1C(=O)N[C@@H](Cc1ccc(O)cc1)C(=O)N[C@@H](CO)C(=O)N[C@@H](Cc1ccc(O)cc1)C(=O)N[C@@H](Cc1ccccc1)C(=O)O` [3102.1270] (H-FLSEPYSYF-OH), with 29 nM; and `CC(C)[C@H](NC(=O)[C@H](Cc1ccccc1)NC(=O)[C@H](Cc1c[nH]cn1)NC(=O)[C@H](CCC(N)=O)NC(=O)[C@@H](N)Cc1ccc(O)cc1)C(=O)N[C@@H](C)C(=O)N[C@@H](CCCNC(=N)N)C(=O)N[C@H](C(=O)N[C@@H](Cc1ccccc1)C(=O)O)C(C)C` [3102.1278] (H-YQHFVARVF-OH), with 0.4 nM.
Then `CC(C)C[C@H](N)C(=O)N[C@@H](CCCCN)C(=O)N[C@@H](CO)C(=O)N1CCC[C@H]1C(=O)N[C@@H](CCCCN)C(=O)N[C@@H](CCCNC(=N)N)C(=O)N[C@@H](CS)C(=O)N[C@@H](CO)C(=O)N[C@@H](Cc1ccccc1)C(=O)O` [3102.1282] (H-LKSPKRCSF-OH), with 2.7 nM.
The molecule `CSCC[C@H](NC(=O)[C@H](Cc1ccc(O)cc1)NC(=O)[C@H](CC(N)=O)NC(=O)[C@H](Cc1ccc(O)cc1)NC(=O)[C@H](CO)NC(=O)[C@H](CCCCN)NC(=O)[C@@H](NC(=O)[C@H](CCCCN)NC(=O)[C@@H](N)CCCNC(=N)N)C(C)C)C(=O)O` [3102.1285] (H-RKVKSYNYM-OH) had an IC50 of 2.6 nM.
`CSCC[C@H](N)C(=O)N[C@@H](CCCCN)C(=O)N[C@@H](Cc1ccc(O)cc1)C(=O)N[C@@H](CS)C(=O)N[C@@H](CO)C(=O)N[C@@H](Cc1ccc(O)cc1)C(=O)N[C@@H](CCC(N)=O)C(=O)N[C@@H](CO)C(=O)N[C@@H](Cc1ccccc1)C(=O)O` [3102.1287] (H-MKYCSYQSF-OH) had an IC50 of 1.6 nM.
For the molecule `CC(C)C[C@H](N)C(=O)N[C@@H](CCCCN)C(=O)N[C@H](C(=O)N[C@H](C(=O)N[C@@H](Cc1ccccc1)C(=O)N[C@H](C(=O)N[C@@H](Cc1c[nH]cn1)C(=O)N1CCC[C@H]1C(=O)N[C@@H](Cc1ccccc1)C(=O)O)C(C)C)[C@@H](C)O)[C@@H](C)O` [3102.1294] (H-LKTTFVHPF-OH), the half-maximal inhibitory concentration (IC50) came out at 1.3 nM.
